Reference: PMC6302136, “Quantitative Chemotherapeutic Profiling of Gynecologic Cancer Cell Lines Using Approved Drugs and Bioactive Compounds^” (Translational Oncology, 2018)
Read-outs that look alike come from different tables or passages of the source.

What was measured:
[1] = system: 11 gynecologic cancer cell lines; experiment: qHTS ATPlite cell viability, gynecologic cancer cell lines (ovarian, cervical, placental); assay type: cell-based, human; settings: for Cell Lines Active: number of the 11 cancer cell lines in which the compound is active (<1 μM potency, >70% efficacy); for Average SI: selectivity index vs HEK 293T
Procedure: (§1) The ATPlite luminescence assay system assay kit was used to determine cell viability. The reagent was reconstituted and prepared as described by the manufacturer. To measure the cell death caused by the compounds, cells were cultured in 4 μl of media for 16 hours at 37°C with 5% CO2 in assay plates, followed by the addition of DMSO or 16 SOC chemotherapeutic compounds dissolved in DMSO. SOC compounds were dosed at 11 concentrations (1:3 dilution) in quadruplicate from 57.5 μM to 0.977 nM using the automated Wako 1536 Pin Tool workstation and incubated at 37°C with 5% CO2 for 24, 48, or 72 hours. Four microliters of ATPlite, the ATP monitoring reagent, was then added to each well of the assay plates using the Multidrop Combi reagent dispenser followed by incubation for 15 minutes at room temperature. The resulting luminescence was measured using the ViewLux plate reader. Data were normalized for each drug using the largest luminescence value as 100% full cell viability (0% cell killing) and to the smallest luminescence value 0% viability (100% cell killing).
(§2) A qHTS [79], in which each compound was assayed in five concentrations (0.092, 0.46, 2.3, 11.5, and 57.5 μM), was performed for the primary compound screen using the NPC [80] and NPACT drug libraries at NCATS. The OBGYN cancer and HEK 293T control cells were seeded into 1536-well assay plates at 1000 cells per 4 μl/well and incubated at 37°C in 5% CO2 for 48 hours. The ATPlite assay to determine the IC50 values for each compound was conducted as described above. Plates were processed on the fully integrated Kalypsys robotic system.

PA-1 cells = experiment: ATP content (ATPlite) cell viability assay in PA-1 cells; assay type: cell-based, human; settings: for IC50: Homo sapiens, PA-1, confirmation screen, 48 h, read-out: Avg IC50; for Avg SI: PA-1 selective compounds, vs HEK 293T, >100 = inactive in HEK293T
HEK 293T cells [2] = experiment: cells; settings: for IC50: read-out: IC50 (HEK 293T toxicity)
Procedure: as §1, §2

HEK 293T cells [3] = system: HEK 293T cells; design: method as in PMID 31498718; settings: CellTiterGlo, cited from earlier work; for IC50: independent screen
[4] = Homo sapiens, average IC90 over the cell lines in which the compound is active, read-out: IC90
[5] = Homo sapiens, toxic compounds, average over all cancer cell lines, 48 h, mean ± S.D., read-out: Average IC50
[6] = toxic compounds, average over all cancer cell lines, mean ± S.D.
[7] = HEK 293T, this screen (ATPlite), 48 h

CC[C@@H]1C(=O)N(C)c2cnc(Nc3ccc(C(=O)NC4CCN(C)CC4)cc3OC)nc2N1C1CCCC1 [BI-2536]
IC90 ([1]; Homo sapiens): 39.7 nM | Cell Lines Active [1]: 4

CC(C)C[C@H](NC(=O)[C@@H](NC(=O)c1cccc(-c2ccccc2)n1)[C@@H](C)O)B(O)O [CEP-18770 (Delanzomib)]
IC90 [1, 4]: 391 nM | Cell Lines Active [1]: 6

CN(NC(=O)CC(=O)NN(C)C(=S)c1ccccc1)C(=S)c1ccccc1 [Elesclomol]
IC90 [1, 4]: 283 nM | IC50 ([1]; Homo sapiens, average over the cell lines in which the compound was active, read-out: average IC50): 0.173 µM | Cell Lines Active [1]: six | Cell Lines Active ([1]; listed as Elesclomol (STA-4783)): 6

CN(C)C1CCN(C(=O)c2ccc(NC(=O)Nc3ccc(-c4nc(N5CCOCC5)nc(N5CCOCC5)n4)cc3)cc2)CC1 [Gedatolisib]
IC90 ([1]; Homo sapiens): 6800 nM | Cell Lines Active [1]: 4

CC[C@@]1(O)C(=O)OCc2c1cc1n(c2=O)Cc2c-1nc1ccccc1c2/C=N/OC(C)(C)C [Gimatecan]
IC50 (PA-1 cells): 33.7 nM | Avg SI (PA-1 cells): 12.5 | IC90 [1, 4]: 275 ± 28 nM | Cell Lines Active [1]: 4

CCN(CC)Cc1ccc2cc(COC(=O)Nc3ccc(C(=O)NO)cc3)ccc2c1 [Givinostat]
IC50 [1, 5]: 3.5 ± 3.88 µM | Average SI [1, 6]: 1.74 ± 1.25 | Efficacy (%) (HEK 293T toxicity) (HEK 293T cells [2]; [7]): 65.6% | IC50 (HEK 293T cells [2]; Homo sapiens, HEK-293T, 48 h): 2910 nM | toxicity to HEK 293T cells (HEK 293T cells [2]; human, 48 h): equally toxic to HEK 293T cells | Efficacy (%) (independent screen, HEK 293T) (HEK 293T cells [3]): 112% | Independent Screen (confirmation of HEK 293T toxicity) (HEK 293T cells [3]): Confirmed toxic | IC50 (HEK 293T cells [3]): 1110 nM

Cc1csc(NC(=O)CSc2nc3c(c(C(F)(F)F)c2C#N)CCC3)n1 [Irestatin 9389]
IC50 ([1]; toxic compounds, average over all cancer cell lines, 48 h, mean ± S.D., read-out: Average IC50): 3.52 ± 3.12 µM | Average SI [1, 6]: 0.51 ± 0.20 | Efficacy (%) (HEK 293T toxicity) (HEK 293T cells [2]; [7]): 102% | IC50 (HEK 293T cells [2]; [7]): 1340 nM

COc1c(C)c2c(c(O)c1C/C=C(\C)CCC(=O)OCCN1CCOCC1)C(=O)OC2 [Mycophenolate mofetil]
IC50 (PA-1 cells): 631 nM | Avg SI (PA-1 cells): >100 | Avg SI (PA-1 cells; listed as mycophenolate mofetil): > 100

COc1ccc(-c2ccc3ncc4c(c3c2)n(-c2ccc(N3CCNCC3)c(C(F)(F)F)c2)c(=O)n4C)cn1 [NVP-BGT226]
IC50 [1, 5]: 5.34 ± 6.56 µM | Average SI [1, 6]: 0.20 ± 0.26 | Efficacy (%) (HEK 293T toxicity) (HEK 293T cells [2]; [7]): 106% | IC50 (HEK 293T cells [2]; Homo sapiens, HEK-293T, 48 h): 258 nM | Efficacy (%) (independent screen, HEK 293T) (HEK 293T cells [3]): 115% | Independent Screen (confirmation of HEK 293T toxicity) (HEK 293T cells [3]): Confirmed toxic | IC50 (HEK 293T cells [3]): 14.5 nM

CC(C)CC(=O)Nc1[nH]nc2c1CN(C(=O)C1CCN(C)CC1)C2(C)C [PHA-793887]
IC50 (PA-1 cells): 194 nM | Avg SI (PA-1 cells): 12.3

COc1cccc2c1C(=O)c1c(O)c3c(c(O)c1C2=O)C[C@@](O)(C(=O)CO)C[C@@H]3O[C@H]1C[C@H](N)[C@H](O[C@@H]2CCCCO2)[C@H](C)O1 [Pirarubicin]
IC50 (PA-1 cells): 839 nM | Avg SI (PA-1 cells): 14.6

Cc1ccc(C(=O)Nc2ccc(CN3CCN(C)CC3)c(C(F)(F)F)c2)cc1C#Cc1cnc2cccnn12 [Ponantinib]
IC50 ([1]; Homo sapiens, 48 h, read-out: Average IC50 (μM)): 15.9 ± 9.07 µM | Average SI [1, 6]: 3.56 ± 4.85 | Efficacy (%) (HEK 293T toxicity) (HEK 293T cells [2]; [7]): 92% | IC50 (HEK 293T cells [2]; Homo sapiens, HEK-293T, 48 h): 19900 nM | Efficacy (%) (independent screen, HEK 293T) (HEK 293T cells [3]): 92.6% | Independent Screen (confirmation of HEK 293T toxicity) (HEK 293T cells [3]): Confirmed toxic | IC50 (HEK 293T cells [3]): 811 nM

CCc1c2c(nc3ccc(O)cc13)-c1cc3c(c(=O)n1C2)COC(=O)[C@]3(O)CC [SN-38]
IC90 ([1]; average IC90 over the cell lines in which the compound is active, read-out: IC90): 592 nM | Cell Lines Active [1]: 4

O=C(CCCCCCC(=O)Nc1ccccc1)NO [Vorinostat]
Efficacy (%) (HEK 293T toxicity) (HEK 293T cells [2]; [7]): 64.7% | toxicity to HEK 293T cells (HEK 293T cells [2]; compared with suppression of the 11 gynecologic cancer cell lines): equally toxic to HEK 293T cells | Efficacy (%) (independent screen, HEK 293T) (HEK 293T cells [3]): 80.2% | Independent Screen (confirmation of HEK 293T toxicity) (HEK 293T cells [3]): Confirmed toxic
